Active and inactive are the calls of the source. The rule behind the calls is not given here.
Tests used:
[1] = target: T1, Matrix metalloproteinase-9 (Homo sapiens, UniProt P14780); assay: Inhibition of MMP9 (unknown origin) by colorimetric assay
[2] = target: T1, Matrix metalloproteinase-9; assay: Inhibition of MMP9 (unknown origin) at 1.3 uM by colorimetric assay relative to control
Epithelial cell = assay: Cytotoxicity against albino rat epithelial rat by MTT assay; format: cell-based
HCT-116 [3] = assay: Anticancer activity against human HCT-116 cells overexpressing MMP9/MAO-A by MTT assay; format: functional, cell-based
[4] = Selectivity index, ratio of IC50 for albino rat epithelial rat to IC50 for human HCT116 cells overexpressing MMP9/MAO-A
HCT-116 [5] = assay: Anticancer activity against human HCT116 cells overexpressing MMP9 assessed as shrinkage incubated for 72 hrs by morphology alteration assay; format: functional, cell-based
HCT-116 [6] = assay: Inhibition of cell migration in human HCT116 cells assessed as suppression of cell migration incubated for 20 hrs by wound healing assay relative to control; format: functional
[7] = target: T2, Amine oxidase [flavin-containing] A (Homo sapiens, UniProt P21397); assay: Inhibition of MAO-A (unknown origin) by multi-well spectrophotometry
T2 sequence (P21397 whole entry): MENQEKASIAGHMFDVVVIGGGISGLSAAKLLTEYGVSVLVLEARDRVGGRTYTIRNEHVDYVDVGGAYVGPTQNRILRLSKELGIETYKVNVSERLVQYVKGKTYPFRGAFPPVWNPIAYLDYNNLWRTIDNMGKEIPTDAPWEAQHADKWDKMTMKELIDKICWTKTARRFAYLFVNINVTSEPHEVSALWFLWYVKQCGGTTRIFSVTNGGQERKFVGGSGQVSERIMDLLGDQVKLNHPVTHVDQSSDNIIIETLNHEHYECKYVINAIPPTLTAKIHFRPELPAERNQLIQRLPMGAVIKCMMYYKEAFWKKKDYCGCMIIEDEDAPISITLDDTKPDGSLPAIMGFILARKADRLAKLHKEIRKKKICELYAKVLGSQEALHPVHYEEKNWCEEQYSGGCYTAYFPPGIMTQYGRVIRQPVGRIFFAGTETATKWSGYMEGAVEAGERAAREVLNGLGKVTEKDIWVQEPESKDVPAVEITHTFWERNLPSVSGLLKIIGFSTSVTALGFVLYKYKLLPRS

[8] = target: T3, Amine oxidase [flavin-containing] B (Homo sapiens, UniProt P27338); assay: Inhibition of MAO-B (unknown origin) by fluorometric assay
T3 sequence (P27338 whole entry): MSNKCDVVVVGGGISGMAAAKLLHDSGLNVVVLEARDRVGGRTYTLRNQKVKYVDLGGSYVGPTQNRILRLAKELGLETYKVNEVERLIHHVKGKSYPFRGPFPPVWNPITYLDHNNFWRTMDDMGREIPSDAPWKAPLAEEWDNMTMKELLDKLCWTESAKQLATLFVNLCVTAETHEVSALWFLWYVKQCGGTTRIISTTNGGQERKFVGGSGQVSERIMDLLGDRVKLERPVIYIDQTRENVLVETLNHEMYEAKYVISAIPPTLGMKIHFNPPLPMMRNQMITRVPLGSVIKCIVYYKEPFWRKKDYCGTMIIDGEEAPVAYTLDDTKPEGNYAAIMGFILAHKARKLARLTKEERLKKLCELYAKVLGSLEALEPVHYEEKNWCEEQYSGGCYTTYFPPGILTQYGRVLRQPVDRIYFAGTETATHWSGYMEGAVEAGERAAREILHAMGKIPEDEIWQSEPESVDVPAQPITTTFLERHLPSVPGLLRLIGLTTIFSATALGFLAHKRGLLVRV

Homo sapiens = organism: Homo sapiens; assay: Selectivity for MAO-B (unknown origin) to MAO-A (unknown origin)
[9] = Suppression of HIF1alpha expression in human HCT116 cells assessed as fold change by qRT-PCR analysis; format: functional, HCT-116

T1 sequence (P14780 whole entry): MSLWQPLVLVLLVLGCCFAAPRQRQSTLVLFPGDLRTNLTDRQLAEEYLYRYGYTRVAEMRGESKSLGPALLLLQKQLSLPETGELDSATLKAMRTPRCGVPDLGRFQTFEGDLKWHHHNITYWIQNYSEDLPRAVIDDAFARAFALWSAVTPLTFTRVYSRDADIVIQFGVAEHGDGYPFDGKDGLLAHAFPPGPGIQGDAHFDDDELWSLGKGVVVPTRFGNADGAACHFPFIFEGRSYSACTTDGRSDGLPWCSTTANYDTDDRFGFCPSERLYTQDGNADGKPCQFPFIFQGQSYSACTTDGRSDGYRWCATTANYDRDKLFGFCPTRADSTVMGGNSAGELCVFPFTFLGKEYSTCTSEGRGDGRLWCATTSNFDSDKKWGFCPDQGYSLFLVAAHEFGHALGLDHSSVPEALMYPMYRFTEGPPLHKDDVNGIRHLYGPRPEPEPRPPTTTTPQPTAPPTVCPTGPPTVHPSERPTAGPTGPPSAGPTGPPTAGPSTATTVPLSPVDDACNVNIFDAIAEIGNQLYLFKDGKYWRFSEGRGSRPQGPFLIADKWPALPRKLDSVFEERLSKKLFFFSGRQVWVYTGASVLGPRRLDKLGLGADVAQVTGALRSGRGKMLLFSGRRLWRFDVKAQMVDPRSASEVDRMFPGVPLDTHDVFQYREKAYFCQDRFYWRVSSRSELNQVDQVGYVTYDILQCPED

Row | Structure (SMILES) | IC50 [1] [nM] | IC50 (Epithelial cell) [nM] | IC50 (HCT-116 [3]) [nM] | Selectivity Index [4] | other results
1 | O=c1c(O)c(-c2ccc(O)c(O)c2)oc2cc(O)cc(O)c12 [QUERCETIN] | 174 |  |  |  | 
2 | O=C(CSc1nnc(-c2ccccc2)o1)NCc1ccc2c(c1)OCO2 |  |  |  |  | inhibition [2]: 30.5%
3 | Cc1ccc(C(=O)NNC(=O)Cn2c(=O)c(Cc3ccccc3)nc3ccccc32)cc1 | 23.1 | 49.7 | 7.64 | 6.51 | Activity (HCT-116 [5]): Active; inhibition (INH) (HCT-116 [6]): 73.32%; IC50 ([7]; read-out: IC50): 5.33 nM; IC50 [8]: 28.6 nM; Selectivity Index (Homo sapiens): 1.88; fold change (FC) [9]: >15.94
4 | CC(C)c1ccc(-n2nnc(-c3ccc(S(=O)(=O)NCC(=O)O)cc3)n2)cc1 | 110 |  |  |  | 
5 | O=C(Cn1c(=O)c(Cc2ccccc2)nc2ccccc21)NNC(=S)Nc1ccccc1 | 8.41 | 16.1 | 5.84 | 2.751 | inhibition (INH) (HCT-116 [6]): 21.27%; IC50 ([7]; read-out: IC50): 5.41 nM; IC50 [8]: 6.81 nM; Selectivity Index (Homo sapiens): 0.649; fold change (FC) [9]: >5
6 | Nn1c(S)nnc1Cn1c(=O)c(Cc2ccccc2)nc2ccccc21 |  | 5.42 | 36 | 0.15 | 
7 | CC(C)(C)OC(=O)C(Cc1ccccc1)NC(=O)Cn1c(=O)c(Cc2ccccc2)nc2ccccc21 (configuration not stated) |  | 26.1 | 22.3 | 1.172 | IC50 ([7]; read-out: IC50): 15.2 nM
8 | C#CCN(C)CCCOc1ccc(Cl)cc1Cl [CLORGILINE] |  |  |  |  | IC50 [7]: Not Active
9 | CNC(=O)C(Cc1ccccc1)NC(=O)C(CC(C)C)SC1CCCC1S (configuration not stated) | 0.57 |  |  |  | 
10 | COc1cc(/C=N/NC(N)=S)ccc1O | 106 |  |  |  | 
11 | COc1cccc2c1C(=O)c1c(O)c3c(c(O)c1C2=O)C[C@@](O)(C(=O)CO)C[C@@H]3O[C@H]1C[C@H](N)[C@H](O)[C@H](C)O1 [DOXORUBICIN] |  | 9.79 | 761 | 0.013 | 
12 | O=C(Cn1c(=O)c(Cc2ccccc2)nc2ccccc21)OCCNCCO |  | 5.03 | 16.5 |  | 
13 | C(=N\NC1Nc2ccccc2N=C1Cc1ccccc1)/c1ccccc1 (configuration not stated) |  |  |  |  | IC50 ([7]; read-out: IC50): 81 nM
14 | CCOC(=O)NNC(=O)Cn1c(=O)c(Cc2ccccc2)nc2ccccc21 | 4.5 | 38.9 | 7.4 | 5.266 | Activity (HCT-116 [5]): Active; inhibition (INH) (HCT-116 [6]): 28.82%; IC50 ([7]; read-out: IC50): 11.9 nM; IC50 [8]: 11.2 nM; Selectivity Index (Homo sapiens): 2.07; fold change (FC) [9]: >5
15 | O=C1CC(=O)N(C(=O)Cn2c(=O)c(Cc3ccccc3)nc3ccccc32)N1 |  | 8.95 | 16200 | 0.553 | 
16 | O=C(Cn1c(=O)c(Cc2ccccc2)nc2ccccc21)NN=c1c(=O)c2ccccc2c1=O |  | 7.98 | 18.6 | 0.435 | 
17 | N=C(N)NS(=O)(=O)c1ccc(NC(=O)Cn2c(=O)c(Cc3ccccc3)nc3ccccc32)cc1 |  | 8.97 | 12.9 | 0.695 | 
18 | O=c1c(Cc2ccccc2)nc2ccccc2n1Cc1nnc(S)o1 |  | 5.29 | 10.7 | 0.512 | 
19 | O=C(O)Cn1c(=O)c(Cc2ccccc2)nc2ccccc21 |  | 13300 | 15.8 | 0.844 | 
20 | O=c1c(Cc2ccccc2)nc2ccccc2n1CC(O)CCl (configuration not stated) |  | 16.3 | 18.7 | 0.954 | 
21 | Nn1c(Cn2c(=O)c(Cc3ccccc3)nc3ccccc32)nnc1Cn1c(=O)c(Cc2ccccc2)nc2ccccc21 |  | 6.04 | 14.9 | 0.405 | 
22 | NNC(=O)Cn1c(=O)c(Cc2ccccc2)nc2ccccc21 |  | 10.6 | 14.7 | 0.729 | 
23 | O=c1c(Cc2ccccc2)nc2ccccc2n1Cc1nnco1 |  | 9.84 | 45.9 |  | 
24 | NC(=S)NNC(=O)Cn1c(=O)c(Cc2ccccc2)nc2ccccc21 | 5.07 | 53.7 | 5.57 | 9.648 | inhibition (INH) (HCT-116 [6]): 61.29%; IC50 ([7]; read-out: IC50): 10.5 nM; IC50 [8]: 7.09 nM; Selectivity Index (Homo sapiens): 1.33; fold change (FC) [9]: >11.02
25 | O=c1c(Cc2ccccc2)nc2ccccc2n1CC(O)CO (configuration not stated) | 9.3 | 48.7 | 8.81 | 5.52 | Activity (HCT-116 [5]): Active; inhibition (INH) (HCT-116 [6]): 27.48%; IC50 ([7]; read-out: IC50): 24 nM; IC50 [8]: 11 nM; Selectivity Index (Homo sapiens): 0.921; fold change (FC) [9]: >5
26 | O=c1c(Cc2ccccc2)nc2ccccc2n1Cc1nnc(S)n1-c1ccccc1 |  | 7.78 | 19.8 |  | 
27 | c1ccc(Cc2nc3ccccc3n3cnnc23)cc1 |  |  |  |  | IC50 ([7]; read-out: IC50): 0.7 nM
28 | O=C(Cn1c(=O)c(Cc2ccccc2)nc2ccccc21)N/N=C/c1ccccc1O |  | 8.12 | 16300 | 0.508 | 
29 | CCOC(=O)Cn1c(=O)c(Cc2ccccc2)nc2ccccc21 |  | 10.2 | 18.3 | 0.559 | 
